According to patent US7105529B2, “Substituted oxindole derivatives as protein tyrosine and as protein serine/threonine kinase inhibitors and compositions and methods of treating chemotherapy and radiation therapy side effects” (SmithKline Beecham Corporation, priority 1997, dated 2006):
Where two headings read alike, the source gives them in different places.

Legend:
Format in all cases: cell-based
[1] = tested on: human diploid fibroblasts (HDF-3); assay: G1-S progression assay (BrdU incorporation); conditions: read-out: G1/S Chkpt (IC50)
Method: This assay is designed to determine the ability of compounds to inhibit progression of cells from G1 into S-phase. […] The protocol is as follows: • (1) Grow human diploid fibroblasts (HDF-3) in 100 mm tissue culture dish to confluency. (2) Plate 6–7×10^3 cells/well in a 96 well plate in 100 μl of DMEM. […] Dilute compound in DMEM containing DMSO and add 100 μl to each well so that the DMSO conc. is 0.6–0.8% in 200 μl final volume. (4) Two h after addition of compound, add 20 μl of 100 μM Br dU (final conc. 10 μM) Make 100 μM solution in DMEM from 10 mM stock solution. (5) After 4 h, add 200 μl PBS to each well and remove the contents of the wells by inverting the plate and soaking on to the paper towel. Repeat the washing step three times, with 400 ul PBS each time. (6) Fix the cells and denature the DNA by adding 200 μl fixation/denaturation solution to each well for 30–40 min. (7) Remove the fixation/denaturation solution by tapping the plate on the paper towel and add 75 μl of anti BrdU peroxidase antibody to each well. (dilute the antibody to 0.1 U/mL from 15 U/mL stock in PBS containing 1% BSA, Fraction V). Incubate the plate O/N at 4° C. (8) Remove the antibody solution and wash wells four times with 400 μl of PBS. Let the wash solution stay for 3–4 min during each wash. (9) Drain the wells and add 100 μl of chemiluminiscence Elisa reagent (Prepare the reagent 15–20 min before use to bring it to rt by mixing 100 parts of reagent A with 1 part of reagent B). (10) Read the plate in a luminometer. Take 2–3 readings within 6–7 min. Perform the following controls: [table] Deoxybromouridine (BrdU), anti BrdU peroxidase antibodies, fixation/denaturation solution, chemiluminiscence reagent and BSA Fraction V, were obtained from Boehringer Mannheim. The 96-well white plate with clear bottom were purchased from Corning Costar Corporation. Dulbecco's Modified Eagle Medium containing high glucose, L-glutamine and pyridoxine HCl was obtained from GIBCO BRL.

[2] = tested on: HDF normal diploid fibroblast cells; assay: MTT assay, HDF; conditions: 72 h
Method: Compounds are tested for their ability to inhibit cell proliferation and cell viability. The metabolic conversion of 3-(4,5-dimethylthiazol-2-yl)-2,5-diphenyltetrazolium bromide (MTT, Sigma #M2128) to a reduced form is a commonly used measure of cellular viability. Following is the procedure: Cells are maintained in 75 cm^2 tissue culture flasks until ready for use. The cells are grown and plated for the assay in Dulbecco's modified Eagle's media (DMEM) containing 10% fetal bovine serum. For example, the following cell lines can be used: a) human foreskin fibroblasts (HFF); b) HT29 (human colon carcinoma cell line); c) MDA-MB468 (human breast carcinoma cell line); d) RKO (human colon adenocarcinoma cell line); e) SW620 (human colon carcinoma cell line); f A549 (human lung carcinoma cell line); and g) MIA PACA (human pancreatic carcinoma cell line). Cells are maintained at 37° C. in 10% CO2, 90% humidified air. Cells are plated in 96-well tissue culture plates at the densities listed below. 100 μL of cell suspension is added to each well of the 96-well plate except the top row of the plate which contains no cells and serves as a reference for the spectrophotometer. [table] Cells are incubated overnight in DMEM containing 10% fetal bovine serum at 37° C. in 10% CO2, 90% humidified air prior to dosing. […] Compounds with solubilities of less than 30 μM are dosed at the highest soluble concentration. Stock solutions of compounds are made in 100% dimethyl sulfoxide (DMSO). Stock solutions are diluted in DMEM containing 100 μg/ml gentamicin and 0.3 to 0.6% DMSO at the twice the highest concentration to be placed on the cells. If compounds have been dissolved in DMSO the final concentration of DMSO on the cells is kept below 0.3%. Three-fold serial dilutions are performed on each compound to prepare 10 concentrations of the compound for dosing. 100 μl of diluted compound is added to the 100 μl of media currently on the dish. For each concentration of compound, 2–4 replicate wells are prepared. Cells are returned to incubator and allowed to proliferate in the presence of compound for 72 h before addition of MTT. […] After 4 h incubation the media, compound and MTT mixture is aspirated from the plates and 100 μl of 100% DMSO is added to each well in addition to 25 μl of Sorenson's Buffer (0.1M glycine, 0.1M NaCl, pH 10.5). Quantitation of metabolic reduction of MTT in each plate is performed by reading optical density at 570 nm wavelength on a Molecular Devices UVmax microplate reader. […] HDF are normal diploid fibroblast cells. RKO are colon adenocarcinoma cells and MES/SA are ovarian carcinoma cells.

[3] = tested on: RKO (human colon adenocarcinoma cell line); assay: MTT assay, RKO; conditions: 72 h
Method: Compounds are tested for their ability to inhibit cell proliferation and cell viability. The metabolic conversion of 3-(4,5-dimethylthiazol-2-yl)-2,5-diphenyltetrazolium bromide (MTT, Sigma #M2128) to a reduced form is a commonly used measure of cellular viability. Following is the procedure: Cells are maintained in 75 cm^2 tissue culture flasks until ready for use. The cells are grown and plated for the assay in Dulbecco's modified Eagle's media (DMEM) containing 10% fetal bovine serum. For example, the following cell lines can be used: a) human foreskin fibroblasts (HFF); b) HT29 (human colon carcinoma cell line); c) MDA-MB468 (human breast carcinoma cell line); d) RKO (human colon adenocarcinoma cell line); e) SW620 (human colon carcinoma cell line); f A549 (human lung carcinoma cell line); and g) MIA PACA (human pancreatic carcinoma cell line). Cells are maintained at 37° C. in 10% CO2, 90% humidified air. Cells are plated in 96-well tissue culture plates at the densities listed below. 100 μL of cell suspension is added to each well of the 96-well plate except the top row of the plate which contains no cells and serves as a reference for the spectrophotometer. [table] Cells are incubated overnight in DMEM containing 10% fetal bovine serum at 37° C. in 10% CO2, 90% humidified air prior to dosing. […] Compounds with solubilities of less than 30 μM are dosed at the highest soluble concentration. Stock solutions of compounds are made in 100% dimethyl sulfoxide (DMSO). Stock solutions are diluted in DMEM containing 100 μg/ml gentamicin and 0.3 to 0.6% DMSO at the twice the highest concentration to be placed on the cells. If compounds have been dissolved in DMSO the final concentration of DMSO on the cells is kept below 0.3%. Three-fold serial dilutions are performed on each compound to prepare 10 concentrations of the compound for dosing. 100 μl of diluted compound is added to the 100 μl of media currently on the dish. […] Quantitation of metabolic reduction of MTT in each plate is performed by reading optical density at 570 nm wavelength on a Molecular Devices UVmax microplate reader. […]

COC(=O)c1ccc2c(c1)/C(=C/Nc1ccc(S(N)(=O)=O)cc1)C(=O)N2 [Example 27]
IC50 ([1]; Homo sapiens, Fibroblast): 1.1 to 5 µM | IC50 ([2]; Fibroblast): 1.1 to 5 µM | IC50 ([3]; Homo sapiens): 1.1 to 5 µM

NS(=O)(=O)c1ccc(NN=C2C(=O)Nc3ccc(-c4cnco4)cc32)cc1 [Example 36]
IC50 ([1]; Homo sapiens, Fibroblast): 0.6 to 1 µM | IC50 ([2]; Fibroblast): 1.1 to 5 µM | IC50 ([3]; Homo sapiens): 0.6 to 1 µM

O=C1Nc2ccc3ncsc3c2C1=CNc1ccc(S(=O)(=O)NCc2ccncc2)cc1 [Example 104, 4-[(7-Oxo-6,7-dihydro-1-thia-3,6-diaza-as-indacen-8-ylidenemethyl)amino]-N-pyridinyl-4-yl-methyl benzenesulfonamide]
IC50 [1]: 1.1 to 5 µM | IC50 [2]: 1.1 to 5 µM | IC50 [3]: 1.1 to 5 µM
